Reference: publication PMC7586344, “Discovery of Novel pERK1/2- or β-Arrestin-Preferring 5-HT1A Receptor-Biased Agonists: Diversified Therapeutic-like versus Side Effect Profile” (Journal of Medicinal Chemistry, 2020)

Columns and labels:
hERG channel = target: T1, hERG channel (Homo sapiens, UniProt Q12809); assay: hERG-CHO automated patch-clamp; assay type: cell-based
T1 construct: host or cells: CHO (hERG-CHO)

5-HT1D = target: T2, 5-HT1D (Homo sapiens, UniProt P28221); assay: Off-target binding screen; settings: read-out: % Inhibition of Control Specific Binding; for inhibition at 1 µM: 1000 nM
T2 construct: Eurofins Pharma Discovery Services (contract screen)

5-HT2A = target: T3, 5-HT2A (Homo sapiens, UniProt P28223); assay: Off-target binding screen; settings: 1000 nM, read-out: % Inhibition of Control Specific Binding
T3 construct: Eurofins Pharma Discovery Services (contract screen)

5-HT2B = target: T4, 5-HT2B (Homo sapiens, UniProt P41595); assay: Off-target binding screen; settings: 1000 nM, read-out: % Inhibition of Control Specific Binding
T4 construct: Eurofins Pharma Discovery Services (contract screen)

5-HT3 = target: T5, 5-HT3 (Homo sapiens, UniProt P46098); assay: Off-target binding screen; settings: 1000 nM, read-out: % Inhibition of Control Specific Binding
T5 construct: Eurofins Pharma Discovery Services (contract screen)
T5 sequence (P46098 24-478): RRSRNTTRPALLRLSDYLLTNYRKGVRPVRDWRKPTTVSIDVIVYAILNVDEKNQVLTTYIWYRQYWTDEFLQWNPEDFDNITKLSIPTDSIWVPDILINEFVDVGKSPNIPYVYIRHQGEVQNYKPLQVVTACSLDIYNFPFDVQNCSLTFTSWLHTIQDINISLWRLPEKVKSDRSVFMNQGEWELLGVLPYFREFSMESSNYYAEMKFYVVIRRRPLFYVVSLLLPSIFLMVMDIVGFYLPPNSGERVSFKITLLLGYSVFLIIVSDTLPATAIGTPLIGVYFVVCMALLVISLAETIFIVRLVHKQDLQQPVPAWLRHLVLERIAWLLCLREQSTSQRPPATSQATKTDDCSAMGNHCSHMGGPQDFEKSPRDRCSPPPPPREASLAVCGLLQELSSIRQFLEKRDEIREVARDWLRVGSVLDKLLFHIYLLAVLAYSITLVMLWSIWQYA

5-HT6 = target: T6, 5-HT6 (Homo sapiens, UniProt P50406); assay: Off-target binding screen; settings: 1000 nM, read-out: % Inhibition of Control Specific Binding
T6 construct: Eurofins Pharma Discovery Services (contract screen)

α1D = target: T7, α1D (Homo sapiens, UniProt P25100); assay: Off-target binding screen; settings: read-out: % Inhibition of Control Specific Binding; for inhibition at 0.01 µM: 10 nM; for inhibition at 0.1 µM: 100 nM; for inhibition at 1 µM: 1000 nM
T7 construct: Eurofins Pharma Discovery Services (contract screen)
T7 sequence (P25100 1-572): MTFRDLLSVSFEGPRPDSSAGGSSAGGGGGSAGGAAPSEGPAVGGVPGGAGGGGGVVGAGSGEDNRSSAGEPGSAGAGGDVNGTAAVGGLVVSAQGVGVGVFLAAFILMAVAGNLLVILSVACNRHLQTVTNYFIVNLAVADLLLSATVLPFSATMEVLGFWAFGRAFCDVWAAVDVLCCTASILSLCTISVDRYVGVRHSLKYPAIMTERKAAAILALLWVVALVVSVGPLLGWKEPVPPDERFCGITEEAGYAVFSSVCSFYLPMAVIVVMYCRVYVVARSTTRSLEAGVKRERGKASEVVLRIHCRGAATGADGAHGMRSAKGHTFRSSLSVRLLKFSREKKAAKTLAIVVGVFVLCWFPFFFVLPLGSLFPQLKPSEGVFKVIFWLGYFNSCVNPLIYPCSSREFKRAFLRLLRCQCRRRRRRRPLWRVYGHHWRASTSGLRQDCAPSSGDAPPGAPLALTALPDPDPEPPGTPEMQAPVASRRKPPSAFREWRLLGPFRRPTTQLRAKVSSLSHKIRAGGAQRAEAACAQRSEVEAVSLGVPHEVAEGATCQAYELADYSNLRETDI

D3 = target: T8, D3 (Homo sapiens, UniProt P35462); assay: Off-target binding screen; settings: read-out: % Inhibition of Control Specific Binding; for inhibition at 0.01 µM: 10 nM; for inhibition at 0.1 µM: 100 nM; for inhibition at 1 µM: 1000 nM
T8 construct: Eurofins Pharma Discovery Services (contract assay)

CB1 = target: T9, CB1 (Homo sapiens, UniProt P21554); assay: Off-target binding screen; settings: 1000 nM, read-out: % Inhibition of Control Specific Binding
T9 construct: Eurofins Pharma Discovery Services (contract assay)

CB2 = target: T10, CB2 (Homo sapiens, UniProt P34972); assay: Off-target binding screen; settings: 1000 nM, read-out: % Inhibition of Control Specific Binding
T10 construct: Eurofins Pharma Discovery Services (contract assay)

M4 = target: T11, M4 (Homo sapiens, UniProt P08173); assay: Off-target binding screen; settings: 1000 nM, read-out: % Inhibition of Control Specific Binding
T11 construct: Eurofins Pharma Discovery Services (contract assay)
T11 sequence (P08173 1-479): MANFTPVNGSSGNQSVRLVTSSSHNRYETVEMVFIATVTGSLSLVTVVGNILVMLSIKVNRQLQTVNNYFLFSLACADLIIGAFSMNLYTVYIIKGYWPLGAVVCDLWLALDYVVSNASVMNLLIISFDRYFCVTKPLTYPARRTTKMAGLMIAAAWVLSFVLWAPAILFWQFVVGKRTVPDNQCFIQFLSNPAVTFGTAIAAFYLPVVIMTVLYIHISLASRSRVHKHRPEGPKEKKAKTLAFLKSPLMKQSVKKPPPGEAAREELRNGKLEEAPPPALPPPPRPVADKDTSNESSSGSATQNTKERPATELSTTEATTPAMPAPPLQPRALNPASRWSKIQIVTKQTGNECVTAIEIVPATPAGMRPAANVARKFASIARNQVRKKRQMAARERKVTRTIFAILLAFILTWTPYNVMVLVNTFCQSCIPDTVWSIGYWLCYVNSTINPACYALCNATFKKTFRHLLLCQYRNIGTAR

H2 = target: T12, H2 (Homo sapiens, UniProt P25021); assay: Off-target binding screen; settings: 1000 nM, read-out: % Inhibition of Control Specific Binding
T12 construct: Eurofins Pharma Discovery Services (contract assay)

H3 = target: T13, H3 (Homo sapiens, UniProt Q9Y5N1); assay: Off-target binding screen; settings: 1000 nM, read-out: % Inhibition of Control Specific Binding
T13 construct: Eurofins Pharma Discovery Services (contract assay)

H4 = target: T14, H4 (Homo sapiens, UniProt Q9H3N8); assay: Off-target binding screen; settings: 1000 nM, read-out: % Inhibition of Control Specific Binding
T14 construct: Eurofins Pharma Discovery Services (contract assay)

µ (MOR) = target: T15, µ (MOR) (Homo sapiens, UniProt P35372); assay: Off-target binding screen; settings: read-out: % Inhibition of Control Specific Binding; for inhibition at 1 µM: 1000 nM
T15 construct: Eurofins Pharma Discovery Services (contract assay)

κ (KOR) = target: T16, κ (KOR) (Homo sapiens, UniProt P41145); assay: Off-target binding screen; settings: 1000 nM, read-out: % Inhibition of Control Specific Binding
T16 construct: Eurofins Pharma Discovery Services (contract assay)

BZD (peripheral) = assay: Off-target binding screen; settings: 1000 nM
GABAA1 (α1,β2,γ2) = target: T17, GABAA1 (α1,β2,γ2) (Homo sapiens, UniProt P14867+P18507+P47870); assay: Off-target binding screen; settings: 1000 nM, read-out: % Inhibition of Control Specific Binding
T17 construct: Eurofins Pharma Discovery Services (contract assay)

BZDp (TSPO) = target: T18, BZDp (TSPO) (Homo sapiens, UniProt P30536); assay: Off-target binding screen; settings: 1000 nM, read-out: % Inhibition of Control Specific Binding
T18 construct: Eurofins Pharma Discovery Services (contract assay)

SERT = target: T19, SERT (Homo sapiens, UniProt P31645); assay: Off-target binding screen; settings: 1000 nM, read-out: % Inhibition of Control Specific Binding
T19 construct: Eurofins Pharma Discovery Services

NET = target: T20, NET (Homo sapiens, UniProt P23975); assay: Off-target binding screen; settings: 1000 nM, read-out: % Inhibition of Control Specific Binding
T20 construct: Eurofins Pharma Discovery Services

DAT = target: T21, DAT (Homo sapiens, UniProt Q01959); assay: Off-target binding screen; settings: 1000 nM, read-out: % Inhibition of Control Specific Binding
T21 construct: Eurofins Pharma Discovery Services
T21 sequence (Q01959 whole entry, species assumed): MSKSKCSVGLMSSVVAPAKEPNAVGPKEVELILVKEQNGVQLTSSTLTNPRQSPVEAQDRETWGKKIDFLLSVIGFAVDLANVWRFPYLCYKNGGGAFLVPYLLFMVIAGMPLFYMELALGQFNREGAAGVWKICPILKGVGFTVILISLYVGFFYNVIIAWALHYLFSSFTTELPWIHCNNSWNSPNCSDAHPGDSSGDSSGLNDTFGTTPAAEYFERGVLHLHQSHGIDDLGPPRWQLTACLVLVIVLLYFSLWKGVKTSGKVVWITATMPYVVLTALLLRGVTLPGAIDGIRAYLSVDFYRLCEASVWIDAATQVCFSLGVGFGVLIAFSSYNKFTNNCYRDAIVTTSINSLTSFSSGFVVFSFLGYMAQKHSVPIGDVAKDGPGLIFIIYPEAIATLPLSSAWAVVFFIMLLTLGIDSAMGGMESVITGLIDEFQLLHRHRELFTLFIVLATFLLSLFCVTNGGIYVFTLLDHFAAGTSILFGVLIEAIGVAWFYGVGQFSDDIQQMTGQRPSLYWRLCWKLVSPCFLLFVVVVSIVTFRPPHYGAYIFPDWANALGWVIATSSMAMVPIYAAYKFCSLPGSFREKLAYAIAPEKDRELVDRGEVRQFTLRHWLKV

T13 sequence (Q9Y5N1 whole entry): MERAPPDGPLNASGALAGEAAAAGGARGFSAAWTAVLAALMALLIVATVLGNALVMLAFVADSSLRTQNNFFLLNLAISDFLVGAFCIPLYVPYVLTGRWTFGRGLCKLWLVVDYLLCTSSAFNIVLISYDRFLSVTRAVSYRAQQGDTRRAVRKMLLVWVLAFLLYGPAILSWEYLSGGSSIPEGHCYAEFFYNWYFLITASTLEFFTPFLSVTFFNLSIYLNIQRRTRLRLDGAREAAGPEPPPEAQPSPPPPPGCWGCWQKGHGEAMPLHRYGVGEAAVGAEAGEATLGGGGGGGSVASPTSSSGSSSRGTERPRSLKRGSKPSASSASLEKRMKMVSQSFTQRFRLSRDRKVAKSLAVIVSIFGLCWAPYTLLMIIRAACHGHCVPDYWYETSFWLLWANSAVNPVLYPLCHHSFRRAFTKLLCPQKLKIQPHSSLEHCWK
T20 sequence (P23975 whole entry): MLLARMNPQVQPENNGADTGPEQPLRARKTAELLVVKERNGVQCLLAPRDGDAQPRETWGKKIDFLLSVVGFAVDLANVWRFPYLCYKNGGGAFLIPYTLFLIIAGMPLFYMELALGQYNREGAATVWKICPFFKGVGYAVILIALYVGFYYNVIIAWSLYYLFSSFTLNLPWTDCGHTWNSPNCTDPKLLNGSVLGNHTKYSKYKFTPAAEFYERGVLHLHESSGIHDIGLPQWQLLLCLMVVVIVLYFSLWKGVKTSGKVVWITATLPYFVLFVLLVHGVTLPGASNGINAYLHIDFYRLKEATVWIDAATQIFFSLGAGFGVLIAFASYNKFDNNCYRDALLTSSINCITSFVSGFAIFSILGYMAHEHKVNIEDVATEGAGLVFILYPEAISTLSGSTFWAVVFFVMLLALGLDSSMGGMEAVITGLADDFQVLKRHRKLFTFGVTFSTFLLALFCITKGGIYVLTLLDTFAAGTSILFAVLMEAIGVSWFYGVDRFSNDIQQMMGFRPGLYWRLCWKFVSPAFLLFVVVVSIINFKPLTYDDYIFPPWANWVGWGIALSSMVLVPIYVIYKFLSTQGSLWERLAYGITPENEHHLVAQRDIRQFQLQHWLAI
T18 sequence (P30536 whole entry): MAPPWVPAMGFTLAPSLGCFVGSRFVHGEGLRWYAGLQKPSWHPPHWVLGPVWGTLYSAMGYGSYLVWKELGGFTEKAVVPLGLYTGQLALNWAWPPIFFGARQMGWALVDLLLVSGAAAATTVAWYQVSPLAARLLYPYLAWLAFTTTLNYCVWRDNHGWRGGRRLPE
T15 sequence (P35372 whole entry): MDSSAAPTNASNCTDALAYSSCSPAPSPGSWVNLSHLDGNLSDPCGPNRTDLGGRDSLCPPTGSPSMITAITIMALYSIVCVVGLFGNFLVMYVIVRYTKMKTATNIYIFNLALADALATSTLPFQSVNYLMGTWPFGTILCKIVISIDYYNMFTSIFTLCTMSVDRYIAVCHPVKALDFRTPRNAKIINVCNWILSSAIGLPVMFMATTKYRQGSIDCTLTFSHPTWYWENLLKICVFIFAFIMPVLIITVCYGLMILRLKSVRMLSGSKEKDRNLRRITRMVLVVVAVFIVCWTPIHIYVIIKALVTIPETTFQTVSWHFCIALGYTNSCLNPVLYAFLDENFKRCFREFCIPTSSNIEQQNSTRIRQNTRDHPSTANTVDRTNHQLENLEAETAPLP
T4 sequence (P41595 whole entry, species assumed): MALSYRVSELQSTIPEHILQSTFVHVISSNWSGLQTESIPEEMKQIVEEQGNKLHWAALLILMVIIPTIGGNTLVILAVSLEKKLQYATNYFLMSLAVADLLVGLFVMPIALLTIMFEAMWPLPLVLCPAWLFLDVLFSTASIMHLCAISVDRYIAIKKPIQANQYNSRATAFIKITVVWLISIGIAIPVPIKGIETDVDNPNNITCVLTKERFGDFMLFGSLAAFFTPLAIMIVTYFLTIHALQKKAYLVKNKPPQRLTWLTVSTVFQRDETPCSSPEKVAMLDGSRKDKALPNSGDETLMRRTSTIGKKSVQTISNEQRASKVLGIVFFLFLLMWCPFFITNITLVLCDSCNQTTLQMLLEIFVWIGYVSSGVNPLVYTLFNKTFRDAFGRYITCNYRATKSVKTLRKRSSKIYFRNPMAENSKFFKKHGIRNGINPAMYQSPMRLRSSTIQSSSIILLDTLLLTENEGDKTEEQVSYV
T9 sequence (P21554 whole entry, species assumed): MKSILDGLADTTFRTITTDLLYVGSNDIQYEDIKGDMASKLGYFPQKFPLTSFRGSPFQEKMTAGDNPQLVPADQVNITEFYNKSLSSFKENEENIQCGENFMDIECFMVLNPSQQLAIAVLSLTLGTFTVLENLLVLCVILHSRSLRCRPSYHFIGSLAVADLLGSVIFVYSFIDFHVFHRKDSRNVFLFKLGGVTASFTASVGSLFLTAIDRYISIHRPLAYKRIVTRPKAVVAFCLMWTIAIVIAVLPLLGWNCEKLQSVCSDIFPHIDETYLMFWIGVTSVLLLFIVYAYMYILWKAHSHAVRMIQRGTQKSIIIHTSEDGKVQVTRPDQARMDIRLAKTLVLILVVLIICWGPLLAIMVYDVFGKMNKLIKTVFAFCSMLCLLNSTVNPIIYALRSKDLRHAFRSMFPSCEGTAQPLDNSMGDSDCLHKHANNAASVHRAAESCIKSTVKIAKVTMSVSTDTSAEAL
T8 sequence (P35462 whole entry): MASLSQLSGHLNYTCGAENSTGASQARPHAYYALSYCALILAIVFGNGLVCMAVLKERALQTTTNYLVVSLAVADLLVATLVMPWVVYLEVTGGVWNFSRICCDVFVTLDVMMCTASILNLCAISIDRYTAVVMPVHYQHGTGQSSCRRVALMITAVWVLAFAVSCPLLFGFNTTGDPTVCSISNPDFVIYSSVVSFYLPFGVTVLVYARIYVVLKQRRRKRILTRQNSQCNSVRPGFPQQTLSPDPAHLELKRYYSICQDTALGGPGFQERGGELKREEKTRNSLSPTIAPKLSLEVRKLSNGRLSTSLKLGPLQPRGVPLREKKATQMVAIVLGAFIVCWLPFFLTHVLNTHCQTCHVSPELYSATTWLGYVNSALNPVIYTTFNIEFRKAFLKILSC
T12 sequence (P25021 whole entry): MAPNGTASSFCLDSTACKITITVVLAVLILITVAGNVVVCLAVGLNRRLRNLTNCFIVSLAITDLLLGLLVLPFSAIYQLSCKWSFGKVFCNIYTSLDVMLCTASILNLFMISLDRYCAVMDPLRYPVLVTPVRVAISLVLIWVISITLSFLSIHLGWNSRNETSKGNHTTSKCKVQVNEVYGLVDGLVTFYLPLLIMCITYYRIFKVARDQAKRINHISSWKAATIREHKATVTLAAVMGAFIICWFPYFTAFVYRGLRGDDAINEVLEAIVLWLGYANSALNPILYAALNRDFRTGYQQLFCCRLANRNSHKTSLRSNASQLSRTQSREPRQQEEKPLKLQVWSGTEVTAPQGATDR
T6 sequence (P50406 whole entry, species assumed): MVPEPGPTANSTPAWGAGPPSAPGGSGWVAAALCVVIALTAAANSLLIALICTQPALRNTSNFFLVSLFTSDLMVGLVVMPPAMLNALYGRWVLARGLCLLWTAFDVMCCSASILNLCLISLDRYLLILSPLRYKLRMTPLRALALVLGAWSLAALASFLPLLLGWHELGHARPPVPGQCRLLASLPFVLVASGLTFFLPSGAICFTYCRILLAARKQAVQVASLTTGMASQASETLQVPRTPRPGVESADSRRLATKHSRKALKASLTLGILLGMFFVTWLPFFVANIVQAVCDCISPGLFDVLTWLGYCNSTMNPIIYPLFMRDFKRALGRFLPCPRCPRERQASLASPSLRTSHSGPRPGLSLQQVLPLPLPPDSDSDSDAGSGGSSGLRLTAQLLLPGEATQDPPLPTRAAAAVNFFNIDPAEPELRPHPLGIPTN
T10 sequence (P34972 whole entry, species assumed): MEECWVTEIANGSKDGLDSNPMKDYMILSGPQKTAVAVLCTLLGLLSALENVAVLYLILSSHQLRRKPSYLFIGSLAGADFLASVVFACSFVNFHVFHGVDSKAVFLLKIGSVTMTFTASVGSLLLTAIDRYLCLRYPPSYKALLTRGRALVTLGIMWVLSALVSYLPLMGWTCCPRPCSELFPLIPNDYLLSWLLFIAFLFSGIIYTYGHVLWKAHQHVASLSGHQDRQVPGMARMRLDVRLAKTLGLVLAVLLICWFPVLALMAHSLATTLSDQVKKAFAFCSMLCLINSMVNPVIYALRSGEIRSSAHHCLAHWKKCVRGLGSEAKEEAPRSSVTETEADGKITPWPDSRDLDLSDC

Structure (SMILES) | % Inhibition of Tail Current in hERG-CHO (hERG channel; 1 µM) [%] | inhibition at 1 µM (5-HT2A) [%] | inhibition at 1 µM (5-HT2B) [%] | inhibition at 1 µM (5-HT3) [%] | inhibition at 1 µM (5-HT6) [%] | inhibition at 0.01 µM (α1D) [%] | inhibition at 0.1 µM (α1D) [%] | inhibition at 1 µM (D3) [%] | inhibition at 1 µM (CB1) [%] | inhibition at 1 µM (CB2) [%] | inhibition at 1 µM (M4) [%] | inhibition at 1 µM (H2) [%] | inhibition at 1 µM (H3) [%] | inhibition at 1 µM (H4) [%] | inhibition at 1 µM (µ (MOR)) [%] | inhibition at 1 µM (κ (KOR)) [%] | % Inhibition of Control Specific Binding (BZD (peripheral)) [%] | inhibition at 1 µM (GABAA1 (α1,β2,γ2)) [%] | inhibition at 1 µM (BZDp (TSPO)) [%] | inhibition at 1 µM (SERT) [%] | other results
O=C(c1ccc(F)c(Cl)c1)N1CCC(F)(CNCCOc2cccc3[nH]ccc23)CC1 [Compound 56, (4-(((2-((1H-Indol-4-yl)oxy)ethyl)amino)methyl)-4-fluoropiperidin-1-yl)(3-chloro-4-fluorophenyl)methanone] | 6.4 | 10 | 48 | -10 | 1 | 23 | 63 | 99 | -15 | 1 | -10 | -33 | -17 | 5 | 88 | 6 | -1.0 | -13 | -6 | 22 | % Inhibition of Tail Current in hERG-CHO (hERG channel; 0,1 µM): 0.3%; % Inhibition of Tail Current in hERG-CHO (hERG channel; 10 µM): 21.1%; inhibition at 0.001 µM (5-HT1D; 1 nM): -14%; inhibition at 0.01 µM (5-HT1D; 10 nM): 27%; inhibition at 0.1 µM (5-HT1D; 100 nM): 80%; inhibition at 0.001 µM (α1D; 1 nM): -7%; inhibition at 0.001 µM (D3; 1 nM): 41%; inhibition at 0.01 µM (D3): 36%; inhibition at 0.1 µM (D3): 85%; inhibition at 0.01 µM (µ (MOR); 10 nM): 10%; inhibition at 0.1 µM (µ (MOR); 100 nM): 58%; inhibition at 1 µM (NET): 5%; inhibition at 1 µM (DAT): 37%
CNc1ccccc1OCCNCC1(F)CCN(C(=O)c2ccc(F)c(Cl)c2)CC1 [Compound 44, (3-Chloro-4-fluorophenyl)(4-fluoro-4-(((2-(2-(methylamino)phenoxy)ethyl)amino)methyl)piperidin-1-yl)methanone] | 17.5 | -2 | 23 | -11 | 3 | -1 | 32 | 42 | 3 | -5 | -11 | -28 | -13 | -11 | 22 | -2 | -5.0 | -4 | -10 | 18 | inhibition at 1 µM (5-HT1D): 38%; inhibition at 1 µM (α1D): 80%; inhibition at 1 µM (NET): 0%; inhibition at 1 µM (DAT): 0%
O=C(c1ccc(F)c(Cl)c1)N1CCC(F)(CNCCOc2ccccc2)CC1 [Compound 3] | 14.2 | 3 | 11 | -4 | -9 | 19 | 40 | 69 | -9 | 4 | -9 | -15 | -14 | -11 | 26 | 4 | -1.0 | -18 | -10 | 8 | % Inhibition of Tail Current in hERG-CHO (hERG channel; 0,1 µM): 1.0%; % Inhibition of Tail Current in hERG-CHO (hERG channel; 10 µM): 64.9%; inhibition at 1 µM (5-HT1D): 48%; inhibition at 1 µM (α1D): 84%; inhibition at 0.01 µM (D3): 12%; inhibition at 0.1 µM (D3): 26%; inhibition at 1 µM (NET): -7%; inhibition at 1 µM (DAT): -2%
